The EC50 is the concentration giving half of the maximal effect.

Experimental findings from patent US9708332B2, “Respiratory syncytial virus inhibitors” (MEDIVIR AB, priority 2013, dated 2017) are described below.

The assay deals with RSV (Long). Description: RSV cytopathic effect (CPE)-based viral replication assay in HEp-2 cells. The following applies: human respiratory syncytial virus, 72 h; HEp-2 cells infected with RSV Long at MOI 0.015, 3 days, cell viability by CellTiter-Glo; read-out: Ec50 (nM) Example A. As to the method:
Compounds of the invention are initially tested in a cytopathic effect (CPE)-based viral replication assay using immortalized cells and a laboratory strain of RSV (Long). This assay evaluates the ability of a compound to inhibit viral replication. Assay plates are prepared by seeding 2,500 HEp-2 cells (ATCC) per well of a 384-well black clear-bottom plate (Greiner Bio-One) in 20 μL of assay media (defined as DMEM supplemented with 2% heat-inactivated fetal bovine serum and 1% Penicillin/Streptomycin). Assay plates are incubated overnight at 37° C. in an incubator containing 5% CO2. The following day, a 10-point serial dilution of test compound is prepared in DMSO. Compounds are subsequently diluted with assay media and 20 μL of diluted compound (containing 1.5% DMSO) is transferred to an assay plate for evaluation of antiviral activity. For the CPE assay, cells are infected at a MOI of 0.015 using 20 μL of RSV Long (ATCC) diluted in assay media. The DMSO concentration is constant throughout the assay plate, including the negative and positive controls. The assay plate is incubated for 3 days at 37° C. in an incubator containing 5% CO2. Cell viability is evaluated with the addition of 10 μL of CellTiter-Glo (ProMega). Luminescence is measured using an EnVision plate reader (Perkin Elmer). EC50 values are calculated using the raw data from the CPE assays, respectively.
(In general: Cytopathic effects are the visible damage that an infection or toxin causes in cultured cells.)
Turning to `O=c1n(Cc2nc(OCCCO)c3ccccc3n2)c2cnccc2n1C1CC1` [Compound 1002], the EC50 came to 260 nM.
For `O=c1n(Cc2nc(CCCCO)c3ccccc3n2)c2ccccc2n1C1CC1` [Compound 1016], the EC50 is 1100 nM.
As for `Cc1ccc2c(OCC3CCOC3)nc(Cn3c(=O)n(C4CC4)c4ccncc43)nc2c1` (stereo not shown) [Compound 1034], the figure is 28 nM; as for `N#Cc1ccc2nc(Cn3c(=O)n(C4CC4)c4ccncc43)nc(OCC3CCOC3)c2c1` (stereo not shown) [Compound 1036], 140 nM; as for `Cn1cc(-c2ccc3c(OCC4CCOC4)nc(Cn4c(=O)n(C5CC5)c5ccncc54)nc3c2)cn1` (stereo not shown) [Compound 1043], 6400 nM.
In the case of `CS(=O)(=O)CCCOc1nc(Cn2c(=O)n(C3CC3)c3ccncc32)nc2cc(Cl)ccc12` [Compound 1065], the EC50 turned out to be 43 nM.
For `O=c1n(Cc2nc(OCCCO)c3ccccc3n2)c2ccccc2n1C1CC1` [Compound 1069] the value was 1200 nM; for `Cc1cc2n(Cc3nc(OCC4CCOC4)c4cc(C#N)ccc4n3)c(=O)c3ccccc3n2n1` (stereo not shown) [Compound 1074], 2.8 nM; for `O=c1n(Cc2nc(OC3CCOC3)c3ccc(Cl)cc3n2)c2c[n+]([O-])ccc2n1C1CC1` (stereo not shown) [Compound 1104], 130 nM.
As to `CN(Cc1cnn(C)c1)c1nc(Cn2c(=O)n(C3CC3)c3ccccc32)nc2ccccc12` [compound 1005], the EC50 stood at 970 nM.
For `O=c1n(Cc2nc(OCC3CCOC3)c3ccccc3n2)c2ncccc2n1C1CC1` (stereo not shown) [compound 1020] the value was 450 nM; for `Cc1cc2n(Cc3nc(N(C)Cc4cnn(C)c4)c4ccccc4n3)c(=O)c3ccccc3n2n1` [compound 1027], 10 nM; for `Cc1cc2n(Cc3nc(OCC4CCOC4)c4ccc(Br)cc4n3)c(=O)c3ccccc3n2n1` (stereo not shown) [compound 1047], 1700 nM.
For `O=c1n(Cc2nc(OCC3CCOC3)c3cc(Cl)ccc3n2)c2cnccc2n1C1CC1` (stereo not shown) [compound 1054] the value was 600 nM.
With `O=c1n(Cc2nc(OC3CCOC3)c3ccc(Cl)cc3n2)c2cnccc2n1C1CC1` (stereo not shown) [compound 1061], the EC50 is 29 nM.
As to `O=c1n(Cc2nc(OC3COC3)c3ccc(Cl)cc3n2)c2cnccc2n1C1CC1` [compound 1068], the EC50 worked out at 63 nM.
Turning to `Cc1cc2n(Cc3nc(OCC4CCOC4)c4ccccc4n3)c(=O)c3ccccc3n2n1` (stereo not shown) [compound 1070], the EC50 was 16 nM.
In the case of `O=C1CCCN1CCOc1nc(Cn2c(=O)n(C3CC3)c3ccncc32)nc2cc(Br)ccc12` [compound 1081], the EC50 came out at 280 nM.
In the case of `O=c1n(Cc2nc(OCC3CCOC3)c3c(Cl)cccc3n2)c2cnccc2n1C1CC1` (stereo not shown) [compound 1085], the EC50 came out at 280 nM.
As for `O=c1n(Cc2nc(OCC3CCOC3)c3cccc(Cl)c3n2)c2cnccc2n1C1CC1` (stereo not shown) [compound 1090], the figure is 710 nM; as for `O=c1n(Cc2nc(OCC3CCOC3)c3ccc(Cl)cc3n2)c2cnccc2n1C1CCOCC1` (stereo not shown) [compound 1095], 380 nM; as for `O=c1n(Cc2nc(OCC3CCOC3)c3ccc(Cl)cc3n2)c2cnccc2n1C1CCS(=O)(=O)C1` (stereo not shown) [compound 1096], 300 nM.
In the case of `Cc1ncc2n(Cc3nc(OC4CCOC4)c4ccccc4n3)c(=O)c3ccccc3n12` (stereo not shown) [compound 1097], the EC50 is 93 nM.
Turning to `Cc1ncn2c3ccccc3c(=O)n(Cc3nc(OC4CCOC4)c4ccccc4n3)c12` (stereo not shown) [compound 1100], the EC50 is 25 nM.
On to `N#Cc1cc2ccccc2n(Cc2nc(OC3CCOC3)c3ccccc3n2)c1=O` (stereo not shown) [compound 1108], for which the EC50 was determined as 1600 nM.
On to `CN(CC1CCOC1)c1nc(Cn2ccc3nccn3c2=O)nc2ccccc12` (stereo not shown) [compound 1119], for which the EC50 is 7700 nM.
As for `Cc1cc2n(Cc3nc(N(C)CC4CCOC4)c4ccccc4n3)c(=O)c3ccccc3n2n1` (stereo not shown) [compound 1140], the figure is 26 nM; as for `Cn1c(=O)n(Cc2nc(OCC3CCOC3)c3ccccc3n2)c2ccccc21` (stereo not shown) [compound 1142], 480 nM.
As for `Cc1cc(CN(C)c2nc(Cn3c(=O)n(C4CC4)c4ccncc43)nc3ccccc23)on1` [compound 1163], the figure is 590 nM; as for `Cc1cc(CN(C)c2nc(CN3C(=O)N(C4CC4)Cc4ccccc43)nc3ccccc23)on1` [compound 1164], 1000 nM; as for `Cc1cc(CN(C)c2nc(Cn3c(=O)c4ccccc4c4ccccc43)nc3ccccc23)on1` [compound 1168], 280 nM.
For `CN(Cc1cnn(C)c1)c1nc(Cn2c(=O)c3ccccc3n3ncc(C#N)c23)nc2ccccc12` [compound 1179] the value was 400 nM.
Regarding `Cc1cc2n(Cc3nc(NC(C)c4cnn(C)c4)c4ccccc4n3)c(=O)c3ccccc3n2n1` (stereo not shown) [compound 1180], the EC50 turned out to be 1400 nM.
As for `CN(Cc1cnn(C)c1)c1nc(Cn2c(=O)c3ccccc3n3cncc23)nc2ccccc12` [compound 1183], the figure is 470 nM; as for `O=c1c2ccccc2n2nccc2n1Cc1nc(OC2CCOC2)c2ccccc2n1` (stereo not shown) [compound 1198], 21 nM; as for `CCc1cc2n(Cc3nc(OC4CCOC4)c4ccccc4n3)c(=O)c3ccccc3n2n1` (stereo not shown) [compound 1199], 8.8 nM.
On to `O=c1c2ccccc2n2nncc2n1Cc1nc(OC2CCOC2)c2ccccc2n1` (stereo not shown) [compound 1200], for which the EC50 stood at 29 nM.
As for `Cc1c(C#N)c(=O)n(Cc2nc(OC3CCOC3)c3ccccc3n2)c2ccccc12` (stereo not shown) [compound 1204], the figure is 79 nM.
For `Cc1cc2n(Cc3nc(OC4CCOC4)c4ccccc4n3)c(=O)c3ccccc3n2n1` (stereo not shown) [compound 1205] the value was 6.6 nM.
Consider `O=c1n(Cc2nc(OC3CCOC3)c3ccccc3n2)c2cnccc2n1C1CC1` (stereo not shown) [compound 1206], for which the EC50 was found to be 110 nM.
As to `Cc1cc2n(Cc3nc(N(C)Cc4cnn(C)c4)c4ccccc4n3)c(=O)c3ccncc3n2n1` [compound 1212], the EC50 was determined as 15 nM.
For `COc1cccc2c(=O)n(Cc3nc(N(C)Cc4cnn(C)c4)c4ccccc4n3)c3cc(C)nn3c12` [compound 1215] the value was 31 nM; for `O=c1n(Cc2nc(OC3CCOC3)c3ccc(Cl)cc3n2)c2cccnc2n1C1CC1` (stereo not shown) [compound 1218], 380 nM.
With `O=c1n(Cc2nc(OC3CCOC3)c3ccc(Cl)cc3n2)c2ncccc2n1C1CC1` (stereo not shown) [compound 1219], the EC50 was determined as 200 nM.
For `O=c1n(Cc2nc(OC3CCOC3)c3ccccc3n2)c2ncccc2n1C1CC1` (stereo not shown) [compound 1221], the EC50 worked out at 170 nM.
Take `O=c1n(Cc2nc(OCC3CCOC3)c3ccccc3n2)c2cccnc2n1C1CC1` (stereo not shown) [compound 1222]: the EC50 amounted to 490 nM.
